The text below walks through data of patent publication US20250376472A1, “3-(PHENYLSULFONYL)-[1,2,3]TRIAZOLO[1,5A]QUINAZOLIN-5(4H)-ONE DERIVATIVES” (priority 2022, published 2025).

The target in this experiment is T1, AgrA (Staphylococcus aureus, UniProt P0A0I7).
T1 construct: endogenous in cells; host or cells: S. aureus USA300 strain UAMS-1625 carrying a P3-lacZ reporter plasmid
In words: cell-based. Also noted: species or system S. aureus. The conditions noted are these: for Ratio IC50 (in presence of HSA)/IC50 (in absence of HSA): 40 mg/mL HSA versus no HSA. How it is done: The inventive compounds are 3-(phenylsulfonyl)-[1,2,3]triazolo[1,5a]quinazolin-5(4h)-one derivatives comprising an N-bound piperazine or homopiperazine at the 8-position of the [1,2,3]triazolo[1,5a]quinazolin-5(4h)-one core, further substituted (on the second nitrogen atom) by an (optionally substituted) acetyl or propionyl amide group. […] Specifically, the reporter gene lacZ (which encodes the protein product β-galactosidase) was transfected into S. aureus with a plasmid under control of the P3 promoter. The compounds were serially diluted in lysogeny broth (LB), and incubated with S. aureus. Following incubation, the S. aureus cells were lysed and treated with 4-methylumbelliferyl-galactopyranoside (MUG). The β-galactosidase produced by expression of lacZ cleaved the MUG into galactopyranose and 4-methylumbelliferone, which was measured by fluorescence.
The resulting reporter strain was used to measure AgrA inhibitory activity as follows. From an overnight culture plate, cells were resuspended in 0.9% (w/v) saline solution and bacterial inoculum was prepared in LB medium with 5×10^5 CFU/ml. Compounds were two-fold serially diluted in LB and 50 μL of this 10× concentrated samples were added into the 96-deep well plate. 500 μL of bacterial suspension was finally added to the compounds or DMSO control. Plates were covered and incubated with shaking at 37° C. After 18 hours incubation, 100 μL was transferred to a new clear 96-well plate and the OD600 was measured using a TECAN Infinite F200 microplate reader to control for growth inhibition. Another 100 μL was transferred to a new black 96-well plate containing 30 μL of lysis buffer (20 mM Tris/HCl, 3 mM MgCl2, 0.5% Tween 20 (v/v), 0.5% NP-40 (v/v)) and the plate was incubated with shaking at 37° C. for 60 min. 20 μL of the substrate MUG (4-Methylumbelliferyl O-D-galactopyranoside) at 0.25 mg/ml was added and the fluorescence (excitation: 360 nm, emission: 450 mu) was measured with a TECAN Infinite F200 microplate reader after 3 hours incubation at 37° C. with shaking. The IC50 was determined using GraphPad PRISM after normalization to DMSO control.

The mark [1] stands for this setting: LB medium supplemented with human serum albumin 40 mg/mL.
Where [2] appears, read: LB medium, no human serum albumin, 18 hours incubation.
The mark [3] stands for this setting: IC50 at 40 mg/mL HSA, LB medium supplemented with human serum albumin 40 mg/mL.
The mark [4] stands for this setting: IC50 without HSA, LB medium, no human serum albumin, 18 hours incubation.

SMILES strings stand for the structures.

T1 sequence (P0A0I7 whole entry): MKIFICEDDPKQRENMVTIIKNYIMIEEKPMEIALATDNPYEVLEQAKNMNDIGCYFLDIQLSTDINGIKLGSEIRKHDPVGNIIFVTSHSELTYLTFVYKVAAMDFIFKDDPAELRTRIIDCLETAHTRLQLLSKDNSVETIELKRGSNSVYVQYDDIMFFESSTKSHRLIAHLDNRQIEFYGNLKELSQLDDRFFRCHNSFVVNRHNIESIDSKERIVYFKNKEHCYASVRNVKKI

As to `Cc1ccc(S(=O)(=O)c2nnn3c2[nH]c(=O)c2ccc(N4CCN(CC(=O)N5CC(C)CC(C)C5)CC4)cc23)c(C)c1` (mixture of isomers) [Compound 63], the “Ratio IC50 (in presence of HSA)/IC50 (in absence of HSA)” value (“Ratio IC50 (in presence of HSA)/IC50” for short) was “++ (++: 25 < ratio ≤ 125)”. Besides, under setting [1], the “IC50 at 40 mg/mL HSA” value is “++ (++: 10 μg/mL < IC50 ≤ 50 μg/mL)”. Also, the “IC50 without HSA” value under setting [2] is recorded as “+++ (+++: IC50 ≤ 1 μg/mL)”.

On to `Cc1ccc(S(=O)(=O)c2nnn3c2[nH]c(=O)c2ccc(N4CCN(CC(=O)N5CCCC5)CC4)cc23)c(C)c1` [Compound 1, 3-(2,4-dimethylphenyl)sulfonyl-8-[4-(2-oxo-2-pyrrolidin-1-yl-ethyl)piperazin-1-yl]-4H-triazolo[1,5-a]quinazolin-5-one], for which the “Ratio IC50 (in presence of HSA)/IC50” value is “++ (++: 25 < ratio ≤ 125)”. Besides, under setting [3], the IC50 was in the range of 18.2 to 91 µM. Further, under setting [4], the IC50 is < 1.82 µM.

As for `Cc1ccc(S(=O)(=O)c2nnn3c2[nH]c(=O)c2ccc(N4CCN(CC(=O)N5CCOCC5)CC4)cc23)c(C)c1` [Compound 2, 3-(2,4-dimethylphenyl)sulfonyl-8-[4-(2-morpholino-2-oxo-ethyl)piperazin-1-yl]-4H-triazolo[1,5-a]quinazolin-5-one], the “Ratio IC50 (in presence of HSA)/IC50” value was “+++ (+++: ratio ≤ 25)”. Besides, the IC50 under setting [3] is < 17.7 µM. The IC50 under setting [4] is < 1.77 µM.

For the compound `CNC(=O)CN1CCN(c2ccc3c(=O)[nH]c4c(S(=O)(=O)c5ccc(C)cc5C)nnn4c3c2)CC1` [Compound 3], the IC50 was < 19.6 µM under setting [3] and < 1.96 µM under setting [4].

With `CCNC(=O)CN1CCN(c2ccc3c(=O)[nH]c4c(S(=O)(=O)c5ccc(C)cc5C)nnn4c3c2)CC1` [Compound 4], the IC50 was < 19.1 µM under setting [3] and < 1.91 µM under setting [4].

Turning to `CCCNC(=O)CN1CCN(c2ccc3c(=O)[nH]c4c(S(=O)(=O)c5ccc(C)cc5C)nnn4c3c2)CC1` [Compound 5], the IC50 runs as follows: under setting [3], 18.6 to 93 µM; under setting [4], < 1.86 µM.

`Cc1ccc(S(=O)(=O)c2nnn3c2[nH]c(=O)c2ccc(N4CCN(CC(=O)NC(C)C)CC4)cc23)c(C)c1` [Compound 6]: the IC50 is, setting by setting: under setting [3], < 18.6 µM; under setting [4], < 1.86 µM.

Take `Cc1ccc(S(=O)(=O)c2nnn3c2[nH]c(=O)c2ccc(N4CCN(CC(=O)NCC(C)C)CC4)cc23)c(C)c1` [Compound 7]: the IC50 by setting is: under setting [3], 18.1 to 90.6 µM; under setting [4], < 1.81 µM.

Turning to `Cc1ccc(S(=O)(=O)c2nnn3c2[nH]c(=O)c2ccc(N4CCN(CC(=O)N(C)C)CC4)cc23)c(C)c1` [Compound 8], the IC50 runs as follows: under setting [3], 19.1 to 95.5 µM; under setting [4], < 1.91 µM.

Consider `CCN(C)C(=O)CN1CCN(c2ccc3c(=O)[nH]c4c(S(=O)(=O)c5ccc(C)cc5C)nnn4c3c2)CC1` [Compound 9], for which the IC50 reads like this: under setting [3], 18.6 to 93 µM; under setting [4], < 1.86 µM.

In the case of `CCCCCNC(=O)CN1CCN(c2ccc3c(=O)[nH]c4c(S(=O)(=O)c5ccc(C)cc5C)nnn4c3c2)CC1` [Compound 10], the IC50 by setting is: under setting [3], 17.7 to 88.4 µM; under setting [4], < 1.77 µM.

As for `Cc1ccc(S(=O)(=O)c2nnn3c2[nH]c(=O)c2ccc(N4CCN(CC(=O)NCCC(C)C)CC4)cc23)c(C)c1` [Compound 11], the IC50 is 17.7 to 88.4 µM under setting [3] and < 1.77 µM under setting [4].

Consider `CCCCCCNC(=O)CN1CCN(c2ccc3c(=O)[nH]c4c(S(=O)(=O)c5ccc(C)cc5C)nnn4c3c2)CC1` [Compound 12], for which the IC50 by setting is: under setting [3], 17.2 to 86.2 µM; under setting [4], < 1.72 µM.

For the compound `Cc1ccc(S(=O)(=O)c2nnn3c2[nH]c(=O)c2ccc(N4CCN(CC(=O)NCCC(C)(C)C)CC4)cc23)c(C)c1` [Compound 13], the IC50 runs as follows: under setting [3], 17.2 to 86.2 µM; under setting [4], < 1.72 µM.

Take `Cc1ccc(S(=O)(=O)c2nnn3c2[nH]c(=O)c2ccc(N4CCN(CC(=O)NCCC(F)(F)F)CC4)cc23)c(C)c1` [Compound 14]: the IC50 was 16.9 to 84.5 µM under setting [3] and < 1.69 µM under setting [4].

Take `Cc1ccc(S(=O)(=O)c2nnn3c2[nH]c(=O)c2ccc(N4CCN(CC(=O)NCCCC(F)(F)F)CC4)cc23)c(C)c1` [Compound 15]: the IC50 reads like this: under setting [3], 16.5 to 82.6 µM; under setting [4], < 1.65 µM.

Turning to `COCCNC(=O)CN1CCN(c2ccc3c(=O)[nH]c4c(S(=O)(=O)c5ccc(C)cc5C)nnn4c3c2)CC1` [Compound 16], the IC50 by setting is: under setting [3], < 18.1 µM; under setting [4], < 1.81 µM.

Regarding `COCCCNC(=O)CN1CCN(c2ccc3c(=O)[nH]c4c(S(=O)(=O)c5ccc(C)cc5C)nnn4c3c2)CC1` [Compound 17], the IC50 by setting is: under setting [3], 17.6 to 88.1 µM; under setting [4], < 1.76 µM.

In the case of `CSCCNC(=O)CN1CCN(c2ccc3c(=O)[nH]c4c(S(=O)(=O)c5ccc(C)cc5C)nnn4c3c2)CC1` [Compound 18], the IC50 reads like this: under setting [3], 17.6 to 87.8 µM; under setting [4], < 1.76 µM.

For the compound `Cc1ccc(S(=O)(=O)c2nnn3c2[nH]c(=O)c2ccc(N4CCN(CC(=O)NCCO)CC4)cc23)c(C)c1` [Compound 19], the IC50 is 18.5 to 92.7 µM under setting [3] and < 1.85 µM under setting [4].

With `Cc1ccc(S(=O)(=O)c2nnn3c2[nH]c(=O)c2ccc(N4CCN(CC(=O)NCCCCO)CC4)cc23)c(C)c1` [Compound 20], the IC50 was 17.6 to 88.1 µM under setting [3] and < 1.76 µM under setting [4].

For the compound `Cc1ccc(S(=O)(=O)c2nnn3c2[nH]c(=O)c2ccc(N4CCN(CC(=O)NCCOCCO)CC4)cc23)c(C)c1` [Compound 21], the IC50 is, setting by setting: under setting [3], 17.1 to 85.7 µM; under setting [4], < 1.71 µM.

In turn, `Cc1ccc(S(=O)(=O)c2nnn3c2[nH]c(=O)c2ccc(N4CCN(CC(=O)NCCOCCOCCO)CC4)cc23)c(C)c1` [Compound 22] had an IC50 under setting [3] of 15.9 to 79.7 µM and an IC50 under setting [4] of 1.59 to 7.97 µM.

`C#CCNC(=O)CN1CCN(c2ccc3c(=O)[nH]c4c(S(=O)(=O)c5ccc(C)cc5C)nnn4c3c2)CC1` [Compound 23]: the half-maximal inhibitory concentration (IC50) under setting [3] was < 18.7 µM and the IC50 under setting [4] is 1.87 to 9.37 µM.

For `CCCNC(=O)CN1CCCN(c2ccc3c(=O)[nH]c4c(S(=O)(=O)c5ccc(C)cc5C)nnn4c3c2)CC1` [Compound 30], the IC50 runs as follows: under setting [3], 18.1 to 90.6 µM; under setting [4], < 1.81 µM.

Consider `COCCNC(=O)CN1CCCN(c2ccc3c(=O)[nH]c4c(S(=O)(=O)c5ccc(C)cc5C)nnn4c3c2)CC1` [Compound 31], for which the “Ratio IC50 (in presence of HSA)/IC50” value was “+++ (+++: ratio ≤ 25)”. For the same compound, the “IC50 at 40 mg/mL HSA” value under setting [1] was “+++ (+++: IC50 ≤ 10 μg/mL)”. In addition, under setting [2], the “IC50 without HSA” value is “+++ (+++: IC50 ≤ 1 μg/mL)”.

Compound `Cc1ccc(S(=O)(=O)c2nnn3c2[nH]c(=O)c2ccc(N4CCCN(CC(=O)NCCO)CC4)cc23)c(C)c1` [Compound 32] returned an IC50 under setting [3] of 18.1 to 90.3 µM and an IC50 under setting [4] of 1.81 to 9.03 µM.

As to `Cc1ccc(S(=O)(=O)c2nnn3c2[nH]c(=O)c2ccc(N4CCN(CC(=O)NC5CC5)CC4)cc23)c(C)c1` [Compound 33], the IC50 is 18.7 to 93.3 µM under setting [3] and < 1.87 µM under setting [4].

Take `Cc1ccc(S(=O)(=O)c2nnn3c2[nH]c(=O)c2ccc(N4CCN(CC(=O)NC5CCC5)CC4)cc23)c(C)c1` [Compound 34]: the concentration for half-maximal inhibition (IC50) is 18.2 to 91 µM under setting [3] and < 1.82 µM under setting [4].

Take `Cc1ccc(S(=O)(=O)c2nnn3c2[nH]c(=O)c2ccc(N4CCN(CC(=O)NC5CCCC5)CC4)cc23)c(C)c1` [Compound 35]: the IC50 runs as follows: under setting [3], < 17.7 µM; under setting [4], < 1.77 µM.

As for `Cc1ccc(S(=O)(=O)c2nnn3c2[nH]c(=O)c2ccc(N4CCN(CC(=O)NCC5CC5)CC4)cc23)c(C)c1` [Compound 36], the IC50 is, setting by setting: under setting [3], 18.2 to 91 µM; under setting [4], < 1.82 µM.

Consider `Cc1ccc(S(=O)(=O)c2nnn3c2[nH]c(=O)c2ccc(N4CCN(CC(=O)NCC5CCCC5)CC4)cc23)c(C)c1` [Compound 37], for which the IC50 runs as follows: under setting [3], < 17.3 µM; under setting [4], < 1.73 µM.

For the compound `Cc1ccc(S(=O)(=O)c2nnn3c2[nH]c(=O)c2ccc(N4CCN(CC(=O)NC5CCCCC5)CC4)cc23)c(C)c1` [Compound 38], the IC50 is 17.3 to 86.5 µM under setting [3] and < 1.73 µM under setting [4].

As to `Cc1ccc(S(=O)(=O)c2nnn3c2[nH]c(=O)c2ccc(N4CCN(CC(=O)N(C)C5CCCCC5)CC4)cc23)c(C)c1` [Compound 39], the half-inhibitory concentration (IC50) by setting is: under setting [3], 16.9 to 84.5 µM; under setting [4], < 1.69 µM.

On to `Cc1ccc(S(=O)(=O)c2nnn3c2[nH]c(=O)c2ccc(N4CCN(CC(=O)NCC5CCCCC5)CC4)cc23)c(C)c1` [Compound 40], for which the IC50 is < 16.9 µM under setting [3] and < 1.69 µM under setting [4].

Take `Cc1ccc(S(=O)(=O)c2nnn3c2[nH]c(=O)c2ccc(N4CCN(CC(=O)NC5CCC(N(C)C)CC5)CC4)cc23)c(C)c1` (stereo not drawn) [Compound 42]: the IC50 under setting [3] was in the range of 16.1 to 80.5 µM and the IC50 under setting [4] was < 1.61 µM.

As for `Cc1ccc(S(=O)(=O)c2nnn3c2[nH]c(=O)c2ccc(N4CCN(CC(=O)NC5CCC(O)CC5)CC4)cc23)c(C)c1` (stereo not drawn) [Compound 43], the IC50 was < 16.8 µM under setting [3] and < 1.68 µM under setting [4].
